One may read the melting point as the temperature, or range, at which the solid turns liquid.

The compound `Cc1c(OC(=O)C(C)(C)C)c(=O)ccn1C` yielded a melting point of 112 to 113 °C. The same measure for `OCc1ccc(OCc2cccc(Cl)c2)cn1`: 78 to 80 °C. The same measure for `CCOC(=N)c1ccc(-c2nc3c(s2)NCCCC3)cc1`: 141 to 143 °C; for `O=[N+]([O-])c1ccc(Oc2ccc(C(c3ccc(Oc4ccc([N+](=O)[O-])c(O)c4)cc3)(C(F)(F)F)C(F)(F)F)cc2)cc1O`: 148 to 151 °C; for `O=c1[nH]nc(-c2ccc(NN=C(c3ccc(O)cc3O)c3ccc(O)cc3O)cc2)c2ccccc12`: 140 to 146 °C.

With `COc1ccccc1NC(=O)Nc1nc(N2CCOCC2)nc(N(CCC(=O)O)Cc2cccc(C)c2)n1`, the melting point fell in the range of 101 to 102 °C. The same measure for `CCOC1CN(CC=CC(=O)Nc2cc3c(Nc4cccc(Br)c4)ncnc3cc2OC)CC(OCC)O1` (stereo not given): 133 to 138 °C; for `COc1ccc(OC)c(C2Nc3ccccc3S2)c1` (stereo not given): 96 to 99 °C. `CC(c1ncccn1)C(O)(Cn1cncn1)c1ccc(F)cc1F` (stereo not given) had a melting point of 193 to 195 °C. The figure for `CN(C(=O)CN(C(=O)CNC(=O)Nc1cccc(Cc2nnn[nH]2)c1)c1ccccc1)c1ccccc1` is 206 °C. The figure for `CCOC(=O)NCCc1cc2ccccc2s1` is 65 to 66 °C; for `Cc1cnc2c(NC(=O)c3c(Cl)cccc3Cl)ccc(C)c2c1N1CCN(C)C1=O` it is above 300 °C. The figure for `N#CNC(=NCCCOc1ccccc1)Nc1cncc(Br)c1` is 129 to 130 °C. `CCCOc1ccc(C2=NN(C(=O)Nc3ccc(C(F)(F)F)cc3)CC2N(CCC)C(=O)OCC(Cl)(Cl)Cl)cc1` (stereo not given) yielded a melting point of 162 to 163 °C. The compound `CS(=O)(=O)Nc1ccc2c(c1)S(=O)(=O)NC1CCCN21` (stereo not given) had a melting point of 177 to 180 °C. The same measure for `Cc1cc2c(s1)Oc1ccc(Cl)cc1NC2=O`: 250 to 253 °C; for `CCOC(=O)Cc1cnc(C(C)(C)C)nc1O`: 98 to 102 °C. The figure for `COC(=O)C(C)(C)COc1ccc(CNC(=O)C2Cc3ccccc3N2S(=O)(=O)c2ccc(-c3ccccc3C(F)(F)F)cc2)cc1` (stereo not given) is 68 to 75 °C.

Regarding `CN1C(=O)CC[C@]2(C)c3ccc(Sc4ccc5cc([N+](=O)[O-])ccc5n4)cc3CC[C@@H]12`, the melting point is 195 to 196 °C. The same measure for `Cc1cccc(NC(=O)Nc2cccc3c2C2CC(=O)CCN2C3=O)n1` (stereo not given): 226 to 228 °C; for `CC(=O)ON=C(O)c1cc(C(O)=NCCO)c(C(=O)O)cc1C(=O)O`: 194 to 195 °C; for `Nc1cccc(-c2nc3n(n2)CCc2ccccc2-3)c1`: 118 to 119 °C. The figure for `Cc1ccc(Oc2ccncc2[N+](=O)[O-])cn1` is 87 to 90 °C; for `C#Cc1cccc(Nc2ncnc3cc(OCCOC(C)=O)c(OCCOC)cc23)c1` it is 134 to 135 °C; for `COc1ccc2[nH]cc(CC#N)c2c1Cl` it is 138 to 139 °C. Compound `COC(=O)C(CCCc1cc(C(C)(C)C)c(O)c(C(C)(C)C)c1)S(=O)(=O)C(CCCc1cc(C(C)(C)C)c(O)c(C(C)(C)C)c1)C(=O)OC` (stereo not given) came in with a melting point of 68 to 69 °C. The figure for `CCCn1c(=O)cc(NNC(=S)NC(C)=O)n(Cc2ccccc2)c1=O` is 184 to 185 °C; for `Cc1cc(C2=CC(c3cc(Cl)cc(Cl)c3)(C(F)(F)F)OC2)ccc1C(=O)OC(C)(C)C` (stereo not given) it is 160 to 162 °C.

In turn, `C1=C(c2cccc3[nH]ccc23)CNCC1` displayed a melting point of 156 °C. Compound `O=C(O)c1cnc2cc(OCc3ccccc3)c(OCc3ccccc3)cn2c1=O` returned a melting point of 208 °C. The same measure for `O=C1NC(=S)NC1=Cc1cc(O)c(O)c(Cl)c1`: 303 to 304 °C. The figure for `Cc1ccc(C(=O)OC(C)c2nc3c(c(=O)n(C)c(=O)n3C)n2C)c(C)n1` (stereo not given) is 160 °C. Regarding `Cc1ccc(-c2ccc3c(c2)C=C(C(=O)Nc2ccc(Cc4ccccn4)cc2)CCO3)cc1`, the melting point was in the range of 189 to 190 °C.

`Cc1c(-c2ccc(O)cc2)n(C(=O)c2ccc(OCCN3CCCCC3)cc2)c2ccc(O)cc12`: the melting point lay in the range of 127 to 130 °C. The same measure for `Clc1cc(CC2(Cc3ccnc(Cl)c3)c3ccccc3-c3ncccc32)ccn1`: 188 to 190 °C; for `Cc1cc(C)cc(C(=O)Cc2ccncc2)c1`: 90 to 91 °C; for `CCCCc1cn(-c2ccccc2CC)c(=O)n1Cc1ccc(-c2ccccc2-c2nnn[nH]2)cc1`: 188 to 189 °C. The same measure for `CC(C)N(CCC12CC3CC(CC(C3)C1)C2)C(=O)NCCCc1ccncc1`: 132 to 134 °C. The figure for `O=S(=O)(Nc1ccc2c(OCc3cccc(-c4ccc(F)cc4)c3)cccc2c1)C(F)(F)F` is 110 to 112 °C; for `CCOC(=O)CC1(c2ccc(OC)c(OC)c2)CNC(=O)C1` (stereo not given) it is 60 to 62 °C; for `O=C(Nc1cc(Cl)ccc1N1CCCCC1)c1cnn2cc(O)cnc12` it is above 300 °C.

The compound `N#Cc1cc2c(-c3cccc(NC(=O)c4cccc(C(F)(F)F)c4)c3)ncnc2s1` registered a melting point of 210 to 212 °C.

On to `CCn1c2ccccc2c2ccncc21`, for which the melting point was in the range of 195 to 196 °C. The same measure for `OCCCc1ccc(Nc2c(-c3nnc(NCCN4CCOCC4)o3)ccc(F)c2F)c(F)c1`: 102 to 106 °C; for `Clc1ccc2c(N3CCCC4CCCC(N5CCCC5)C43)ccnc2c1` (stereo not given): 136 to 138 °C; for `C1=C(c2ccccc2)CCN(Cc2nc3ccccc3[nH]2)C1`: 253 to 255 °C. The figure for `CCn1nc(C)c2c(Cl)c(CO)cnc21` is 119 to 121 °C. The same measure for `CC(C)C(O)(C#Cc1cccs1)c1cncnc1` (stereo not given): 113 to 114 °C. The compound `Cc1cc(C)c(C(C(N)=O)C(N)=O)c(C)c1` gave a melting point of 177 to 179 °C. The same measure for `Cc1ccccc1-c1nc2c3ccccc3ccn2c1NC(C)c1ccccc1` (stereo not given): 160 to 162 °C; for `CS(=O)(=O)NCc1cc(Br)cc2[nH]c(=O)c(=O)[nH]c12`: above 300 °C.

`CCOC(=O)c1c(CCl)nc2cc3c(cc2c1-c1ccc(OC)c(OC)c1)OCCO3` came in with a melting point of 197 to 198 °C. As for `Cc1cn2c(=O)c(C(=O)O)cnc2c2cc([N+](=O)[O-])ccc12`, the melting point is 301 to 303 °C. Compound `CC(Cn1ncnn1)n1nnc2cc3c(=O)n(C(C)Cn4ncnn4)nnc3cc2c1=O` (stereo not given) had a melting point of 64 to 66 °C. The figure for `CC(C)n1cc(C(=O)C(F)(F)F)c2ccc([N+](=O)[O-])cc21` is 143 to 145 °C; for `CCOC(=O)C1=C(N)NC(N)=C(C(=O)OCC)C1c1ccccc1F` it is 128 to 130 °C. The figure for `COc1ccc(C(=O)CCC2CCN(C(C)=O)CC2)cc1NC(=O)C(F)(F)F` is 77 to 79 °C; for `CN(C)c1nc2sc3c(NCc4ccco4)ncnc3c2c2c1CC(C)(C)C2` it is 217 °C.

Turning to `Cc1ccc(CN2CCN(C3=NC4(C=CC(=O)C=C4)C(c4ccccc4)=C3)CC2)cc1`, the melting point amounted to 135 °C. Compound `Cc1cccc(C(=O)Nc2ccc3c(c2)CCC(NCc2ccccn2)CC3)c1-c1ccc(C(F)(F)F)cc1` (stereo not given) showed a melting point of 104 to 106 °C. The same measure for `CC(C)(C)c1cc(CCc2ccc(NC(=O)Nc3ccccc3)cc2)cc(C(C)(C)C)c1O`: 206 to 207 °C; for `CCOC(=O)c1ccc2c(c1)OC(CCCBr)C(=O)N2` (stereo not given): 118 to 119 °C; for `Cc1cc(O)ccc1-c1cnc2[nH]c(=O)n(CC3CCCCC3)c2n1`: 212 to 214 °C. The same measure for `COc1ccc(-c2[nH]nc3c2C(=O)c2c(NC(=O)CN4CCC(C(N)=O)CC4)cccc2-3)cc1`: above 300 °C; for `CCON=C1CN(c2nc3c(cc2F)c(=O)c(C(=O)O)cn3C2CC2)CC12CN(C(=O)OC(C)(C)C)C2`: 261 to 262 °C.

The compound `COc1cc(C)nc(NC(=S)NNC(=O)c2ccccc2)n1` registered a melting point of 193 to 195 °C. Turning to `CCOC(=O)C1=C(C(F)(F)F)COc2ccc3ccccc3c21`, the melting point was 246 to 249 °C. The same measure for `CC1(C)OC(=O)c2c(O)cccc21`: 128 to 134 °C. The same measure for `O=C(c1ccc(F)cc1)C1CCN(CCN(C(=O)c2ccc([N+](=O)[O-])cc2)c2ccccc2)CC1`: 178 to 180 °C; for `CC(C)Cn1c(=O)n(C)c(=O)c2c(SCCO)n(Cc3cccc4ccccc34)cc21`: 138 to 141 °C. The figure for `N#Cc1cc(C(=O)NNC(=O)c2occc2-c2ccccc2OCC2CCCCC2)ccc1O` is 142 to 143 °C; for `CS(=O)(=O)c1ccc(-c2cc(=O)n(CC3CCCC3)nc2-c2ccc(F)cc2)cc1` it is 76 to 77 °C; for `O=C(c1ccc(-c2cnc3c(c2)N(Cc2c(F)ccc(F)c2Cl)CCN3)cc1)N1CCC(N2CCCC2)CC1` it is 93 to 95 °C.

In turn, `COC1=CC2=CCC3C(=CCC4(C)C(=O)C(C)CC34)C2(C)CC1` (stereo not given) came in with a melting point of 124 to 129 °C. The same measure for `Cc1cc(C)c(Oc2nc(C)nc(Cl)c2Cl)c(C)c1`: 68 to 70 °C. For the compound `CCCOCc1nc(C(C)(C)O)c(C(=O)O)n1Cc1ccc(-c2ccccc2C(=O)O)cc1`, the melting point was in the range of 109 to 111 °C. The same measure for `CC(C)(C)OC(=O)NN=C(c1ccccc1)c1ccncc1`: 134 °C; for `CP(C)(=O)COc1cc(Cl)c(C=O)c(Cl)c1`: 136 to 139 °C.

`O=C(O)Cc1nsc(NC(=O)c2ccccc2)n1` came in with a melting point of 173 to 175 °C. The figure for `COc1ccc2[nH]c3c(c2c1)CCSCCC3` is 122 to 124 °C; for `O=C(Cc1ccccc1)Cc1ccc(Cl)c(Cl)c1` it is 131 to 133 °C; for `Cc1c(NC(=O)CC(C)(C)C)cc2c(c1C)OC(C)(C)C2c1ccccc1` (stereo not given) it is 182 to 183 °C. The figure for `COc1ccccc1C(=O)C=CC(=O)O` is 146 to 148 °C; for `CCNC(=O)c1c(Br)ccc(OC)c1[Si](C)(C)C` it is 200 °C; for `O=C1Cc2c(cc3ccccc3c2Cl)C(c2ccccc2Cl)N1` (stereo not given) it is 252 to 254 °C.

These data come from a melting point compilation (Tetko et al.; mined from patent text by program, amines drawn as free bases though some values may be those of a salt).
